One experiment has as its target Cathepsin S (UniProt P25774). In words: Cathepsin enzyme inhibition assay (fluorogenic peptide substrate Z-Val-Val-Arg-AMC), Cathepsin S. Format: biochemical, human and mouse. As to conditions: enzyme 1 nM, substrate 20 μM, pH 6.5; read-out: CatS IC50. The essentials:
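Human or mouse cathepsin S (1 nM) was run in 100 mM potassium phosphate pH 6.5 with 5 mM EDTA, 0.001% Triton X-100 and 5 mM DTT. The rise in AMC fluorescence from cleavage was measured, and IC50 values were calculated by standard methods and expressed in μM.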

The target of the next experiment is Cat L (UniProt P07711). Nature of the experiment: Cathepsin enzyme inhibition assay (fluorogenic peptide substrate Z-Val-Val-Arg-AMC), Cathepsin L. As to conditions: enzyme 1 nM, substrate 20 μM, pH 6.5; read-out: CatL IC50. Format: biochemical, human and mouse. Put shortly:
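Cathepsin L at 1 nM was mixed with compound, then started with 20 μM Z-Val-Val-Arg-AMC in pH 6.5 potassium phosphate with EDTA, Triton X-100 and 5 mM DTT. AMC fluorescence (ex 360/em 465 nm) was followed over 20 min. IC50 is given in μM.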

Counter-ions that a name gives are not always drawn. Where only a bound is given, the exact number is not on record here.

Consider `N#CC1(NC(=O)[C@@H]2C[C@@H](S(=O)(=O)c3ccccc3)CN2C(=O)c2ccccc2)CC1` [Example 73, (2S,4R)-4-Benzenesulfonyl-1-benzoyl-pyrrolidine-2-carboxylic acid (1-cyano-cyclopropyl)-amide], for which the results for the IC50 at Cathepsin S and at Cat L were 12.7 nM and at least 25000 nM, respectively.

For the molecule `N#CC1(NC(=O)[C@@H]2C[C@@H](S(=O)(=O)c3ccc(OCC(F)(F)F)cc3Cl)CN2C(=O)C2CC2(F)F)CC1` (stereo partly drawn) [Example 241, (2S,4R)-4-[2-Chloro-4-(2,2,2-trifluoro-ethoxy)-benzenesulfonyl]-1-(2,2-difluoro-cyclopropanecarbonyl)-pyrrolidine-2-carboxylic acid (1-cyano-cyclopropyl)-amide], the IC50 (commonly the concentration at which inhibition is half-maximal) was found to be 0.33 nM at Cathepsin S and 31800 nM on Cat L.

`N#CC1(NC(=O)[C@@H]2C[C@@H](S(=O)(=O)c3ccc(OCC(F)(F)F)cc3Cl)CN2C(=O)Oc2ccc(Cl)cc2)CC1` [Example 252, (2S,4R)-4-[2-Chloro-4-(2,2,2-trifluoro-ethoxy)-benzenesulfonyl]-2-(1-cyano-cyclopropylcarbamoyl)-pyrrolidine-1-carboxylic acid 4-chloro-phenyl ester]: the IC50 at Cathepsin S was 1.75 nM; on Cat L, at least 25000 nM.

`N#CC1(NC(=O)[C@@H]2C[C@@H](S(=O)(=O)c3ccccc3C(F)(F)F)CN2C(=O)C2(c3ccc(Cl)cc3)CC2)CC1` [Example 202, (2S,4R)-1-[1-(4-Chloro-phenyl)-cyclopropanecarbonyl]-4-(2-trifluoromethyl-benzenesulfonyl)-pyrrolidine-2-carboxylic acid (1-cyano-cyclopropyl)-amide]: the figures for the IC50 at Cathepsin S and on Cat L were 0.1 nM and 606 nM, respectively.

Regarding `Cc1ccc(=O)n(-c2ccc(S(=O)(=O)[C@@H]3C[C@@H](C(=O)NC4(C#N)CC4)N(C(=O)OC(C)(C)C)C3)c(C(F)(F)F)c2)n1` [Example 10, (2S,4R)-2-(1-Cyano-cyclopropylcarbamoyl)-4-[4-(3-methyl-6-oxo-6H-pyridazin-1-yl)-2-trifluoromethyl-benzenesulfonyl]-pyrrolidine-1-carboxylic acid tert-butyl ester], the IC50 on Cathepsin S is 0.7 nM; at Cat L, at least 25000 nM.

With `N#CC1(NC(=O)[C@@H]2C[C@@H](S(=O)(=O)c3ccc(OCC(F)(F)F)cc3Cl)CN2C(=O)C2(C(F)(F)F)CC2)CC1` [Example 172, (2S,4R)-4-[2-Chloro-4-(2,2,2-trifluoro-ethoxy)-benzenesulfonyl]-1-(1-trifluoromethyl-cyclopropanecarbonyl)-pyrrolidine-2-carboxylic acid (1-cyano-cyclopropyl)-amide], the IC50 at Cathepsin S came out at 0.4 nM; on Cat L, 8930 nM.

As to `CC(C(=O)N1C[C@H](S(=O)(=O)c2ccccc2Cl)C[C@H]1C(=O)NC1(C#N)CC1)c1ccc(Cl)cc1` (stereo partly shown) [Example 431], the IC50 on Cathepsin S was found to be 0.875 nM; on Cat L it was 130 nM.

For the molecule `N#CC1(NC(=O)[C@@H]2C[C@@H](S(=O)(=O)c3ccc(OCC(F)(F)F)cc3Cl)CN2CC2(c3ccc(Cl)cc3)CC2)CC1` [Example 365, (2S,4R)-1-[1-(4-Chloro-phenyl)-cyclopropylmethyl]-4-[2-chloro-4-(2,2,2-trifluoro-ethoxy)-benzenesulfonyl]-pyrrolidine-2-carboxylic acid (1-cyano-cyclopropyl)-amide], the IC50 at Cathepsin S was 240 nM; at Cat L it was at least 25000 nM.

Consider `N#CC1(NC(=O)[C@@H]2C[C@@H](S(=O)(=O)c3ccc(OCC(F)(F)F)cc3Cl)CN2C(=O)C2(c3ccccc3)CCOCC2)CC1` [Example 287, (2S,4R)-4-[2-Chloro-4-(2,2,2-trifluoro-ethoxy)-benzenesulfonyl]-1-(4-phenyl-tetrahydro-pyran-4-carbonyl)-pyrrolidine-2-carboxylic acid (1-cyano-cyclopropyl)-amide], for which the IC50 at Cathepsin S was 0.175 nM; at Cat L, 3170 nM.

For the molecule `C[C@H](Oc1ccc(S(=O)(=O)[C@@H]2C[C@@H](C(=O)NC3(C#N)CC3)N(C(=O)OC(C)(C)C)C2)c(Cl)c1)C(F)(F)F` [Example 229, (2S,4R)-4-[2-Chloro-4-((S)-2,2,2-trifluoro-1-methyl-ethoxy)-benzenesulfonyl]-2-(1-cyano-cyclopropylcarbamoyl)-pyrrolidine-1-carboxylic acid tert-butyl ester], the IC50 on Cathepsin S is 14.7 nM; at Cat L, 23900 nM.

Turning to `N#CC1(NC(=O)[C@@H]2C[C@@H](S(=O)(=O)c3ccc(OCC(F)(F)F)cc3Cl)CN2C(=O)C2(c3ccc4c(c3)OCO4)CC2)CC1` [Example 384, (2S,4R)-1-(1-Benzo[1,3]dioxol-5-yl-cyclopropanecarbonyl)-4-[2-chloro-4-(2,2,2-trifluoro-ethoxy)-benzenesulfonyl]-pyrrolidine-2-carboxylic acid (1-cyano-cyclopropyl)-amide], the concentration for half-maximal inhibition (IC50) was 0.05 nM on Cathepsin S and 100 nM at Cat L.

For the molecule `N#CCNC(=O)C12CC(F)(F)CN1CCC2S(=O)(=O)c1ccccc1` (stereo not shown) [Example 117, 1-Benzenesulfonyl-6,6-difluoro-tetrahydro-pyrrolizine-7a-carboxylic acid cyanomethyl-amide, diasteromer Δ2], the IC50 was 86.5 nM at Cathepsin S and at least 25000 nM on Cat L.

As to `N#CC1(NC(=O)[C@@H]2C[C@@H](S(=O)(=O)c3ccc(N4CCC(F)(F)C4)cc3C(F)(F)F)CN2)CC1` [Example 28, (2S,4R)-4-[4-(3,3-Difluoro-pyrrolidin-1-yl)-2-trifluoromethyl-benzenesulfonyl]-pyrrolidine-2-carboxylic acid (1-cyano-cyclopropyl)-amide hydrochloride], the figures for the half-maximal inhibitory concentration (IC50) at Cathepsin S and on Cat L were 1.5 nM and at least 25000 nM, respectively.

For `N#CC1(NC(=O)[C@@H]2C[C@@H](S(=O)(=O)c3ccc(Cl)cc3Cl)CN2C(=O)C2(c3ccc(Cl)cc3)CC2)CC1` [Example 223, (2S,4R)-1-[1-(4-Chloro-phenyl)-cyclopropanecarbonyl]-4-(2,4-dichloro-benzenesulfonyl)-pyrrolidine-2-carboxylic acid (1-cyano-cyclopropyl)-amide], the IC50 on Cathepsin S amounted to 0.1 nM; on Cat L, 45 nM.

For `CC(C)(C)c1ccccc1N1CC(S(=O)(=O)c2ccccc2C(F)(F)F)CC1C(=O)NC1(C#N)CC1` (stereo not shown) [Example 355, 1-(2-tert-Butyl-phenyl)-4-(2-trifluoromethyl-benzenesulfonyl)-pyrrolidine-2-carboxylic acid (1-cyano-cyclopropyl)-amide], the figures for the IC50 at Cathepsin S and on Cat L were 2450 nM and at least 25000 nM, respectively.

As for `N#CC1(NC(=O)[C@@H]2C[C@@H](S(=O)(=O)c3ccc(F)cc3Cl)CN2C(=O)C2(c3ccc(Cl)nc3)CC2)CC1` [Example 368, (2S,4R)-4-(2-Chloro-4-fluoro-benzenesulfonyl)-1-[1-(6-chloro-pyridin-3-yl)-cyclopropanecarbonyl]-pyrrolidine-2-carboxylic acid (1-cyano-cyclopropyl)-amide], the IC50 was 0.21 nM at Cathepsin S and 267 nM on Cat L.

Take `N#CC1(NC(=O)[C@@H]2C[C@@H](S(=O)(=O)c3ccccc3Cl)CN2C(=O)C2(c3cccc(C(F)(F)F)c3)CC2)CC1` [Example 429, (2S,4R)-4-(2-chlorophenylsulfonyl)-N-(1-cyanocyclopropyl)-1-(1-(3-(trifluoromethyl)phenyl)cyclopropanecarbonyl)pyrrolidine-2-carboxamide]: the IC50 turned out to be 0.365 nM at Cathepsin S and 460 nM on Cat L.

Turning to `Cc1cc(-c2ccc(S(=O)(=O)[C@@H]3C[C@@H](C(=O)NC4(C#N)CC4)N(C(=O)C4(C)CC4)C3)c(C(F)(F)F)c2)ccn1` [Example 257, (2S,4R)-1-(1-M ethyl-cyclopropanecarbonyl)-4-[4-(2-methyl-pyridin-4-yl)-2-trifluoromethyl-benzenesulfonyl]-pyrrolidine-2-carboxylic acid (1-cyano-cyclopropyl)-amide], the IC50 came to 0.195 nM on Cathepsin S and 48200 nM at Cat L.

For `N#CC1(NC(=O)[C@@H]2C[C@@H](S(=O)(=O)c3ccc(OCC(F)(F)F)cc3Cl)CN2C(=O)C2CC2c2ccccc2)CC1` (stereo partly shown) [Example 247], the IC50 at Cathepsin S was 0.385 nM; at Cat L, 3440 nM.

With `CC(C)(C)OC(=O)N[C@@H](C(=O)N1C[C@H](S(=O)(=O)c2ccccc2Cl)C[C@H]1C(=O)NC1(C#N)CC1)c1ccc(Cl)cc1` [Example 412, [(R)-2-[(2S,4R)-4-(2-Chloro-benzenesulfonyl)-2-(1-cyano-cyclopropylcarbamoyl)-pyrrolidin-1-yl]-1-(4-chloro-phenyl)-2-oxo-ethyl]-carbamic Acid Tert-butyl ester], the values for the IC50 on Cathepsin S and at Cat L were 2.75 nM and 785 nM, respectively.

Take `N#CC1(NC(=O)[C@@H]2C[C@@H](S(=O)(=O)c3ccc(N4CCOC4=O)cc3C(F)(F)F)CN2)CC1` [Example 27, (2S,4R)-4-[4-(2-oxo-oxazolidin-3-yl)-2-trifluoromethyl-benzenesulfonyl]-pyrrolidine-2-carboxylic acid (1-cyano-cyclopropyl)-amide hydrochloride]: the IC50 was 2.2 nM on Cathepsin S and at least 25000 nM at Cat L.

Regarding `N#CC1(NC(=O)[C@@H]2C[C@@H](S(=O)(=O)c3ccccc3Cl)CN2C(=O)OC2CCCC2)CC1` [Example 98, (2S,4R)-4-(2-Chloro-benzenesulfonyl)-2-(1-cyano-cyclopropylcarbamoyl)-pyrrolidine-1-carboxylic acid Cyclopentyl Ester], the results for the IC50 on Cathepsin S and at Cat L were 1.1 nM and 15700 nM, respectively.

For `N#CC1(NC(=O)[C@@H]2C[C@@H](S(=O)(=O)c3ccccc3C(F)(F)F)CN2c2ccccc2[N+](=O)[O-])CC1` [Example 166, (2S,4R)-1-(2-Nitro-phenyl)-4-(2-trifluoromethyl-benzenesulfonyl)-pyrrolidine-2-carboxylic Acid (1-cyano-cyclopropyl)-amide], the IC50 is 0.6 nM on Cathepsin S and at least 25000 nM on Cat L.

The values are drawn from US8163793B2, “Proline derivatives” (Hoffman-La Roche Inc., priority 2009, dated 2012).
